ChEMBL document CHEMBL1138430, “Novel tetrahydroisoquinolines are histamine H3 antagonists and serotonin reuptake inhibitors” (Bioorg Med Chem Lett, 2007)
Calls of active or inactive are those of the source. The rule behind the calls is not given here.

Columns and labels:
Homo sapiens [1] = organism: Homo sapiens; experiment: Binding affinity for chloride channel at 1 uM
[2] = target: Neurotensin receptor type 1 (Homo sapiens) (UniProt P30989); experiment: Binding affinity at NT1 receptor at 1 uM
Chain of Neurotensin receptor type 1 (Homo sapiens) (P30989 whole entry): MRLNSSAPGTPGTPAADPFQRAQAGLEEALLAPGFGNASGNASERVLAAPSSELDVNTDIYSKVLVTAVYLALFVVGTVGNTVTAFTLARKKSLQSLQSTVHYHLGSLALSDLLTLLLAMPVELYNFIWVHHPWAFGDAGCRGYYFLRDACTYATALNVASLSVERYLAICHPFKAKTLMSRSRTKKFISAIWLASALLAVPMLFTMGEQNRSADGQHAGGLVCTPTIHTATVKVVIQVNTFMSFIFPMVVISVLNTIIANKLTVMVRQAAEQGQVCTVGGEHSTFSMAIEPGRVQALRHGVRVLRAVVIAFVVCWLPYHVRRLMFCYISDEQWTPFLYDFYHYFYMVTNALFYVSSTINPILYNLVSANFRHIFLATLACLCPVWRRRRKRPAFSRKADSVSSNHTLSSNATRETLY

[3] = target: T1, Galanin receptor type 2 (Homo sapiens) (UniProt O43603); experiment: Binding affinity at galanin 2 receptor at 1 uM
T1 sequence (whole entry): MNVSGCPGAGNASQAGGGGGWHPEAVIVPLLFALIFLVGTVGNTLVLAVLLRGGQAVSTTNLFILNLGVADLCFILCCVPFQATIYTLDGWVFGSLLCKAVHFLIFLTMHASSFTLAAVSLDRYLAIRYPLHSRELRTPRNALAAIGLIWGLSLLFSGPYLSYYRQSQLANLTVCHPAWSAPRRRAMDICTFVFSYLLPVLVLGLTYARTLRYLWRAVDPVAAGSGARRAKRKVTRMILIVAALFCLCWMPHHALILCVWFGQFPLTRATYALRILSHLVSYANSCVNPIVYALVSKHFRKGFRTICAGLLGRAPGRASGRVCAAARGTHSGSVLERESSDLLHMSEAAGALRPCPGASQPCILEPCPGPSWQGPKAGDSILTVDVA

[4] = target: T2, Muscarinic acetylcholine receptor M2 (Homo sapiens) (UniProt P08172); experiment: Binding affinity at muscarinic M2 receptor at 1 uM
T2 sequence (whole entry): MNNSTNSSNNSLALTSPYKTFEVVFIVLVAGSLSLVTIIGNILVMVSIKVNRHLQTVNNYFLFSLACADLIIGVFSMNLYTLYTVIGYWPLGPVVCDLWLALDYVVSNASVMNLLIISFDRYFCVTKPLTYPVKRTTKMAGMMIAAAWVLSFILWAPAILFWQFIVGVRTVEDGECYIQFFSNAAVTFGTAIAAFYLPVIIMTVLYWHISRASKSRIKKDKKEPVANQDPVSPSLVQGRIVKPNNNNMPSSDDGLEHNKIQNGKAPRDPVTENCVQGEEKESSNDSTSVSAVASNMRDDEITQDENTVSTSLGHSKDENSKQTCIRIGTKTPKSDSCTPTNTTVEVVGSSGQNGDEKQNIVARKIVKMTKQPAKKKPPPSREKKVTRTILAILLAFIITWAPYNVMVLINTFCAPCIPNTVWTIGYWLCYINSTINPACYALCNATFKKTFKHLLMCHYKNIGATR

[5] = target: T3, 5-hydroxytryptamine receptor 3A (Homo sapiens) (UniProt P46098); experiment: Binding affinity at 5HT3 receptor at 1 uM
T3 sequence (whole entry): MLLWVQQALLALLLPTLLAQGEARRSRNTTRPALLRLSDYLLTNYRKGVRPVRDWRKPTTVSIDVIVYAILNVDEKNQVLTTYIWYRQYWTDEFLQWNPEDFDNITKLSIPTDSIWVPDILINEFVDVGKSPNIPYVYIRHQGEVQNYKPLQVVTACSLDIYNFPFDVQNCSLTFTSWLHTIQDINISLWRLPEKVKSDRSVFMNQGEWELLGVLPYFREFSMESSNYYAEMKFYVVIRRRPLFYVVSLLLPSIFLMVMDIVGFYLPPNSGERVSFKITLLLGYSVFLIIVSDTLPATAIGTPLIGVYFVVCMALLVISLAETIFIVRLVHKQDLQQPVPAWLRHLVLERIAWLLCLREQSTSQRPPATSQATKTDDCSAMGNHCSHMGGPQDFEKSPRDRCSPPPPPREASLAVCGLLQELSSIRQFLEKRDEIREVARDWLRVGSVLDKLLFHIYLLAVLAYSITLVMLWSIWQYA

Homo sapiens [6] = organism: Homo sapiens; experiment: Binding affinity at adrenergic alpha-2 receptor at 1 uM
[7] = target: T4, Adenosine receptor A1 (Homo sapiens) (UniProt P30542); experiment: Binding affinity at adenosine A1 receptor at 1 uM
T4 sequence (whole entry): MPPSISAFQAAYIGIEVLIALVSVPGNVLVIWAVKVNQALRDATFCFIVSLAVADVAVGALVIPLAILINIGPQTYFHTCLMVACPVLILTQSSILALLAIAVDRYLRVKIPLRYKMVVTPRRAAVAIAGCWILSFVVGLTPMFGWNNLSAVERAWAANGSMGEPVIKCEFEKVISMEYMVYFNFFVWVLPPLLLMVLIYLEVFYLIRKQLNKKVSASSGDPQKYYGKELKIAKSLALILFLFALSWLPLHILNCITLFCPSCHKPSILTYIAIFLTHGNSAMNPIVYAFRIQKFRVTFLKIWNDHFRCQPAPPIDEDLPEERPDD

[8] = target: 5-hydroxytryptamine receptor 1B (Homo sapiens) (UniProt P28222); experiment: Binding affinity at 5HT1B receptor at 1 uM
Chain of 5-hydroxytryptamine receptor 1B (Homo sapiens) (P28222 whole entry): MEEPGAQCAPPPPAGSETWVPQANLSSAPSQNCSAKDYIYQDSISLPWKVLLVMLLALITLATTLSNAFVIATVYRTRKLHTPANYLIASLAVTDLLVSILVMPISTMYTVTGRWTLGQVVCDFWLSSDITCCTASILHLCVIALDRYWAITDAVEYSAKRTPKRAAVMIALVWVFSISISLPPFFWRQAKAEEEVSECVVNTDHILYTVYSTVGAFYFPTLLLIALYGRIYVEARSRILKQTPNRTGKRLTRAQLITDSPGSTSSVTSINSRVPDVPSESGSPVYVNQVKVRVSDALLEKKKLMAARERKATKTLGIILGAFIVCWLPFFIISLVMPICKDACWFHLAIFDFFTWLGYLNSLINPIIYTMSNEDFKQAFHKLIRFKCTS

[9] = target: 5-hydroxytryptamine receptor 7 (Homo sapiens) (UniProt P34969); experiment: Binding affinity at 5HT7 receptor at 1 uM
Chain of 5-hydroxytryptamine receptor 7 (Homo sapiens) (P34969 whole entry): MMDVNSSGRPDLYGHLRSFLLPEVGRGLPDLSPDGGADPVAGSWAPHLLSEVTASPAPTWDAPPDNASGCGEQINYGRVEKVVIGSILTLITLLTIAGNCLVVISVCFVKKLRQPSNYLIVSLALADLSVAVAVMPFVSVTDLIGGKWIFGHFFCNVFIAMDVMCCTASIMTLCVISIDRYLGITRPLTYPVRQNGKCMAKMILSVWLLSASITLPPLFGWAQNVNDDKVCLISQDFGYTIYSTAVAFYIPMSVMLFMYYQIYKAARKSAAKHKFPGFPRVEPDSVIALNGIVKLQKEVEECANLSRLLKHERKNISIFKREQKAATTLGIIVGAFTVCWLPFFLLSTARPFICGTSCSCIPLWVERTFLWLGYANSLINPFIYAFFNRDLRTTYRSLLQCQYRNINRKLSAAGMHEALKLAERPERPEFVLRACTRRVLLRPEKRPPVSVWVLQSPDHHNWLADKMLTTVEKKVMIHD

Homo sapiens [10] = organism: Homo sapiens; experiment: Binding affinity for sodium channel at 1 uM
[11] = target: Muscarinic acetylcholine receptor M3 (Homo sapiens) (UniProt P20309); experiment: Binding affinity at muscarinic M3 receptor at 1 uM
Chain of Muscarinic acetylcholine receptor M3 (Homo sapiens) (P20309 whole entry, looked up): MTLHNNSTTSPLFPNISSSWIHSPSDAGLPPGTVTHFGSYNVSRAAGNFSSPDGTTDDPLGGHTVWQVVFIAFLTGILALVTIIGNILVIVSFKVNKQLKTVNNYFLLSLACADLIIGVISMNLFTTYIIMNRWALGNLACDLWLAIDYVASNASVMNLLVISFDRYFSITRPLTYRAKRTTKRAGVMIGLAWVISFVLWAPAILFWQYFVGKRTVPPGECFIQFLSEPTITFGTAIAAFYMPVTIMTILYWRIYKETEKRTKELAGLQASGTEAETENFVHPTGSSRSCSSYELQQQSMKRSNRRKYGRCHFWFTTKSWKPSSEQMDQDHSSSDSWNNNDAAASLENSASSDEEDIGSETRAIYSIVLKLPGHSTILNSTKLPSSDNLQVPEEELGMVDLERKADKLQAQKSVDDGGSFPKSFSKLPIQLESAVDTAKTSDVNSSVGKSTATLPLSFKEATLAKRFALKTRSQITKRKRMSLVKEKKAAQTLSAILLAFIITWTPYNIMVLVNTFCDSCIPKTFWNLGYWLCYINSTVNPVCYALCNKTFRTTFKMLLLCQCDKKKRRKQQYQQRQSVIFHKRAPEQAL

[12] = target: 5-hydroxytryptamine receptor 2A (Homo sapiens) (UniProt P28223); experiment: Binding affinity at 5HT2A receptor at 1 uM
Chain of 5-hydroxytryptamine receptor 2A (Homo sapiens) (P28223 whole entry): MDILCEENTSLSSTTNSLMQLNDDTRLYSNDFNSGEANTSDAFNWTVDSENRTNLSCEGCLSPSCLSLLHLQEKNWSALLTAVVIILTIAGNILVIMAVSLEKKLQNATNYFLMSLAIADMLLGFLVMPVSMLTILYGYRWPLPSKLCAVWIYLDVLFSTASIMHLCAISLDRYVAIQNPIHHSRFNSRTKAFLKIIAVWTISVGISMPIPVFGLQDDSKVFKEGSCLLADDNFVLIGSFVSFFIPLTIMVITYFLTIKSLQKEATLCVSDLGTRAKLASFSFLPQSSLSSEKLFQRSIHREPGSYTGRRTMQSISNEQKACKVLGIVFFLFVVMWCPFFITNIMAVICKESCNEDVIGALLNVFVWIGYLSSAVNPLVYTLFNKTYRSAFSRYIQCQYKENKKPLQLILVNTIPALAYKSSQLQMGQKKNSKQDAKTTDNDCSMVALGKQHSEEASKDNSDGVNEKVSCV

[13] = target: D(2) dopamine receptor (Homo sapiens) (UniProt P14416); experiment: Binding affinity at dopamine D2 receptor at 1 uM
Chain of D(2) dopamine receptor (Homo sapiens) (P14416 whole entry): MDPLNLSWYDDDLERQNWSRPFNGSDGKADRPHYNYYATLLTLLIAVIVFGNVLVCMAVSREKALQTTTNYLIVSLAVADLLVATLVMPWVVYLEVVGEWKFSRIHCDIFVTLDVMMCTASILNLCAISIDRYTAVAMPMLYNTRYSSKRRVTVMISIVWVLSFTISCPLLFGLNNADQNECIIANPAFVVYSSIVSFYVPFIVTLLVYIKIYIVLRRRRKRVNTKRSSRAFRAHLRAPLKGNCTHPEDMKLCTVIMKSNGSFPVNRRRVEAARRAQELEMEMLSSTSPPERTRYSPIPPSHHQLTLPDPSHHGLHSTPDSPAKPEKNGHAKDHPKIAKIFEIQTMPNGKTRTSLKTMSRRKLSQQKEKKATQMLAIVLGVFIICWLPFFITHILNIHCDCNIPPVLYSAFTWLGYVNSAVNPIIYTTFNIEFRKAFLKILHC

[14] = target: T5, 5-hydroxytryptamine receptor 1A (Homo sapiens) (UniProt P08908); experiment: Binding affinity at 5HT1A receptor at 1 uM
T5 sequence (whole entry): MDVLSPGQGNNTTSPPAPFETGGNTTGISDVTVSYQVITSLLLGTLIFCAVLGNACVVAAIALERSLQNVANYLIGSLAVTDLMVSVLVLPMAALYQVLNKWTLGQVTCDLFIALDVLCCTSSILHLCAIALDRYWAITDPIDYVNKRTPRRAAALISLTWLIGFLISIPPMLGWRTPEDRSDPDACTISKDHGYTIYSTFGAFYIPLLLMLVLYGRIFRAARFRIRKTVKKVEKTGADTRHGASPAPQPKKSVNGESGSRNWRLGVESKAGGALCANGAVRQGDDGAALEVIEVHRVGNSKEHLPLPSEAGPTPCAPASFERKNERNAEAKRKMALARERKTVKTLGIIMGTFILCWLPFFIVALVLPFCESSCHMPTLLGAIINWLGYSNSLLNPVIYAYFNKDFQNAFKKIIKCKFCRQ

| Activity (Homo sapiens [1]) | Activity [2] | Activity [3] | Activity [4] | Activity [5] | Activity (Homo sapiens [6]) | Activity [7] | Activity [8] | Activity [9] | Activity (Homo sapiens [10]) | Activity [11] | Activity [12] | Activity [13] | Activity [14] | Structure (SMILES) |
| --- | --- | --- | --- | --- | --- | --- | --- | --- | --- | --- | --- | --- | --- | --- |
| inactive | inactive | inactive | inactive | inactive | inactive | inactive | inactive | inactive | inactive | inactive | inactive | inactive | inactive | COc1ccc([C@@H]2CN(C)Cc3cc(OCCCN4CCOC[C@@H]4C)ccc32)cc1 |
| inactive | inactive | inactive | inactive | inactive | inactive | inactive | inactive | inactive | inactive | inactive | inactive | inactive | inactive | CSc1ccc(C2CN(C)Cc3cc(OCCCN4CCC(F)CC4)ccc32)cc1 (racemic) |
| inactive | inactive | inactive | inactive | inactive | inactive | inactive | inactive | inactive | inactive | inactive | inactive | inactive | inactive | CSc1ccc(C2CN(C)Cc3cc(OCCCN4CCOCC4)ccc32)cc1 (racemic) |
